Measurements: US20260345641A1, “COMPOSITIONS AND USES THEREOF” (Algorae Pharmaceuticals Ltd, priority 2023, published 2026)

Tested on: SH-SY5Y cells
Test: Gene expression analysis by RNA sequencing in the presence of Aβ
Assay type: cell-based, human
Details: 5 μM, with Aβ
Text: The SH-S5Y5 neuroblastoma cell line was used for pre-clinical analysis. The SH-S5Y5 cell line is commonly used as a model for neurodegenerative disorders as the cells can be converted to various types of functional neurons by the addition of specific compounds (see, e.g., Xicoy et al., 2017, Molecular Neurodegeneration, 12: 10). In addition, the SH-S5Y5 cell line has been used widely in experimental neurological studies, including analysis of neuronal differentiation, metabolism, and function related to neurodegenerative processes, neurotoxicity and neuroprotection (see, e.g., Datki et al., 2003, Brain Research Bulletin, 62(3): 22-229; and Xie et al., 2010, Chinese Medical Journal, 123(8): 1086-1092).
Total RNA was isolated from cells using TRIzol in accordance with the manufacturer's instructions (Invitrogen, Carlsbad, CA, USA). RNA concentration and quality was assessed using a NanoDrop spectrophotometer. Only samples with a 260/280 ratio of ≥1.8 were used for further analysis.
Messenger RNA (mRNA) was purified from total RNA using poly-T oligo attached magnetic beads. After fragmentation, cDNA synthesis was performed in accordance with the manufacturer's instructions (Illumina, San Diego, CA, USA) to generate a directional and non-directional library. Libraries were checked with Qubit, real-time PCR was performed for quantification, and size distribution detection was performed using the Bioanalyzer. Quantified libraries were pooled and sequenced on an Illumina platform, according to the manufacturer's instructions.
Raw reads were filtered and mapped to human reference genome (GRCh38/hg38) using HISAT2. Differential gene expression analysis was performed using R Package DEG seq2. […] Manual annotation of genes previously associated with specific neurodegenerative disorders and dementias was performed following a text mining analysis.

COc1cc2c(cc1OC)C(=O)C(CC1CCN(Cc3ccccc3)CC1)C2 (stereo not shown) [Donepezil]
ATP13A2 gene expression (control 7.789, P 0.022): 5.931 | TUBB4A gene expression (control 7.889, P 0.013): 12.522 | C19orf12 gene expression (control 8.149, P 0.002): 8.062 | COMT gene expression (control 8.395, P 0.009): 7.242 | CLCN6 gene expression (control 8.460, P 0.007): 9.489 | SLC2A1 gene expression (control 8.472, P 0.018): 9.539 | KIF5A gene expression (control 8.491, P 0.023): 7.978 | MT-TE gene expression (control 8.733, P 0.049): 14.784 | ASTN2 gene expression (control 8.739, P 0.008): 10.467 | GAP43 gene expression (control 8.840, P 0.016): 14.884 | HTRA1 gene expression (control 8.986, P 0.035): 3.452 | GPT2 gene expression (control 9.062, P 0.018): 9.323 | RELN gene expression (control 9.086, P 0.007): 8.830 | MAP2 gene expression (control 9.232, P 0.018): 13.284 | FAR1 gene expression (control 9.502, P 0.001): 9.330 | ULK1 gene expression (control 9.616, P 0.008): 7.435 | MT-TR gene expression (control 9.625, P 0.053): 7.395 | AUH gene expression (control 9.982, P 0.001): 9.689 | UBQLN2 gene expression (control 10.132, P 0.055): 10.681 | TP53 gene expression (control 10.247, P 0.010): 10.184 | RNF216 gene expression (control 10.517, P 0.005): 11.360 | LMNB1 gene expression (control 10.575, P 0.020): 13.789 | SDHA gene expression (control 10.591, P 0.002): 10.690 | CTSF gene expression (control 10.619, P 0.034): 12.207 | PHIP gene expression (control 10.884, P 0.000): 10.131 | NEAT1 gene expression (control 10.972, P 0.010): 8.854 | GSR gene expression (control 10.993, P 0.009): 14.077 | NBEA gene expression (control 11.016, P 0.010): 12.180 | HEXB gene expression (control 11.029, P 0.010): 11.767 | NIPA1 gene expression (control 11.189, P 0.025): 10.862 | PDGFRA gene expression (control 11.237, P 0.009): 11.624 | SORT1 gene expression (control 11.268, P 0.004): 9.054 | DLAT gene expression (control 11.385, P 0.035): 10.390 | CTSA gene expression (control 11.863, P 0.001): 12.014 | AIFM1 gene expression (control 11.948, P 0.026): 10.769 | KIF4A gene expression (control 12.106, P 0.000): 12.317 | PIK3CA gene expression (control 12.209, P 0.057): 9.685 | MT-TM gene expression (control 12.408, P 0.006): 7.334 | PSEN1 gene expression (control 12.549, P 0.033): 10.463 | CST3 gene expression (control 12.563, P 0.049): 14.607 | PNKP gene expression (control 12.578, P 0.015): 13.753 | UBE4A gene expression (control 12.586, P 0.050): 11.589 | PANK2 gene expression (control 12.767, P 0.010): 5.414 | PINK1 gene expression (control 12.825, P 0.001): 9.640 | SERPINI1 gene expression (control 12.857, P 0.025): 12.924 | NEFL gene expression (control 13.063, P 0.010): 22.943 | TOMM40 gene expression (control 13.758, P 0.001): 15.441 | PMPCA gene expression (control 13.790, P 0.022): 11.969 | PRKAR1B gene expression (control 13.838, P 0.000): 14.889 | NGF gene expression (control 14.274, P 0.012): 1.165 | EIF2B5 gene expression (control 14.483, P 0.017): 12.247 | NEFH gene expression (control 14.777, P 0.018): 13.335 | TBK1 gene expression (control 15.661, P 0.052): 12.891 | SPG21 gene expression (control 15.666, P 0.035): 17.306 | MIR103A2 gene expression (control 15.688, P 0.029): 9.508 | DNAJC5 gene expression (control 16.143, P 0.004): 18.101 | SDHAF1 gene expression (control 16.174, P 0.024): 17.490 | ALDH18A1 gene expression (control 16.206, P 0.012): 18.398 | BIRC6 gene expression (control 16.315, P 0.045): 14.545 | SMCR8 gene expression (control 16.386, P 0.025): 9.923 | SCARB2 gene expression (control 16.783, P 0.011): 20.762 | HCFC1 gene expression (control 17.149, P 0.014): 21.365 | MT-TV gene expression (control 17.283, P 0.000): 9.882 | KCTD7 gene expression (control 18.066, P 0.016): 14.737 | CDK1 gene expression (control 18.213, P 0.001): 31.665 | WDR45 gene expression (control 18.358, P 0.008): 10.730 | ATP6V1A gene expression (control 18.408, P 0.038): 16.105 | ATXN7L3B gene expression (control 19.279, P 0.006): 20.868 | MT-TY gene expression (control 19.436, P 0.034): 14.109 | DNAJB6 gene expression (control 19.482, P 0.010): 13.438 | MT-TN gene expression (control 19.578, P 0.001): 4.546 | DNMT1 gene expression (control 19.641, P 0.019): 19.982 | HRAS gene expression (control 19.713, P 0.000): 18.552 | SNHG1 gene expression (control 19.818, P 0.004): 17.384 | SYP gene expression (control 20.006, P 0.004): 15.060 | BACE1 gene expression (control 20.034, P 0.031): 16.945 | ACHE gene expression (control 20.557, P 0.010): 15.012 | SMARCC1 gene expression (control 21.060, P 0.050): 23.108 | CPT1C gene expression (control 21.622, P 0.000): 23.209 | SETD1A gene expression (control 22.012, P 0.020): 11.489 | LRP10 gene expression (control 23.073, P 0.013): 19.237 | DIAPH1 gene expression (control 23.288, P 0.016): 23.289 | NDUFS4 gene expression (control 23.590, P 0.040): 31.457 | TIA1 gene expression (control 24.343, P 0.029): 18.552 | SORCS1 gene expression (control 24.655, P 0.014): 27.879 | MADD gene expression (control 24.804, P 0.015): 17.028 | MAP1B gene expression (control 25.187, P 0.004): 31.197 | PNPLA6 gene expression (control 25.949, P 0.007): 14.472 | HTRA2 gene expression (control 26.112, P 0.003): 24.427 | FUS gene expression (control 26.563, P 0.006): 23.115 | CHRNA3 gene expression (control 26.776, P 0.015): 35.011 | STARD7 gene expression (control 27.791, P 0.022): 25.690 | RGS4 gene expression (control 28.376, P 0.019): 23.445 | RRM2B gene expression (control 28.427, P 0.027): 15.106 | OTUD5 gene expression (control 29.629, P 0.024): 29.255 | MMADHC gene expression (control 29.814, P 0.009): 28.376 | PHF1 gene expression (control 31.064, P 0.022): 22.592 | XPR1 gene expression (control 31.247, P 0.010): 53.075 | TFG gene expression (control 31.479, P 0.015): 30.210 | DEGS1 gene expression (control 32.375, P 0.003): 28.878 | SQSTM1 gene expression (control 32.378, P 0.007): 38.955 | TCF4 gene expression (control 32.383, P 0.017): 36.707 | PDGFRB gene expression (control 32.930, P 0.001): 20.075 | UNC5C gene expression (control 33.422, P 0.001): 34.253 | COL3A1 gene expression (control 34.958, P 0.008): 29.884 | MT-TQ gene expression (control 37.146, P 0.001): 28.576 | NID1 gene expression (control 38.202, P 0.008): 51.536 | COASY gene expression (control 38.304, P 0.003): 24.487 | TMEM230 gene expression (control 40.014, P 0.054): 35.809 | GRN gene expression (control 43.913, P 0.009): 38.715 | SOD1 gene expression (control 44.413, P 0.023): 54.134 | HNRNPDL gene expression (control 44.506, P 0.001): 58.385 | EIF4G1 gene expression (control 46.194, P 0.005): 47.437 | VCP gene expression (control 49.074, P 0.025): 49.391 | ATP6V1E1 gene expression (control 51.257, P 0.048): 41.488 | GBA2 gene expression (control 53.427, P 0.010): 42.069 | PARK7 gene expression (control 54.907, P 0.006): 62.824 | EEF1A2 gene expression (control 63.840, P 0.016): 77.336 | MT-TP gene expression (control 74.063, P 0.023): 57.524 | U2AF2 gene expression (control 88.738, P 0.014): 53.895 | MT-TS1 gene expression (control 108.757, P 0.004): 75.947 | PRDX1 gene expression (control 137.725, P 0.007): 123.771 | HNRNPA1 gene expression (control 180.363, P 0.003): 274.269 | GNAS gene expression (control 193.754, P 0.003): 202.087 | MT-ND6 gene expression (control 281.366, P 0.001): 64.249 | APP gene expression (control 293.865, P 0.033): 159.632 | PFN1 gene expression (control 386.845, P 0.010): 384.213 | MT-ATP8 gene expression (control 388.214, P 0.017): 298.175 | FTL gene expression (control 423.318, P 0.015): 514.018 | MT-ND5 gene expression (control 1304.948, P 0.012): 1379.984 | MT-ND1 gene expression (control 2654.440, P 0.010): 2177.390 | MT-ND2 gene expression (control 2855.888, P 0.019): 2011.949 | MT-CYB gene expression (control 4523.043, P 0.003): 4140.601 | MT-CO3 gene expression (control 6360.482, P 0.003): 6139.890 | MT-ATP6 gene expression (control 6754.328, P 0.009): 5525.655 | COL4A1 gene expression (first listing, control 3.205, P 0.014): 6.341 | APBB2 gene expression (first listing, control 7.376, P 0.015): 5.038 | MTR gene expression (first listing, control 7.739, P 0.018): 9.723 | DNAJC6 gene expression (first listing, control 11.205, P 0.017): 14.537 | TWNK gene expression (first listing, control 25.053, P 0.010): 15.384 | COL4A1 gene expression (second listing, control 3.206, P 0.014): 4.649 | APBB2 gene expression (second listing, control 7.118, P 0.015): 6.231 | MTR gene expression (second listing, control 8.443, P 0.018): 8.954 | DNAJC6 gene expression (second listing, control 12.142, P 0.017): 12.821 | TWNK gene expression (second listing, control 22.506, P 0.010): 19.867
